Reference: US10238658B2, “1-pyrazolyl-3-(4-((2-anilinopyrimidin-4-yl) oxy) napththalen-1-yl) ureas as p38 MAP kinase inhibitors” (Respivert Limited, priority 2011, dated 2019)

Key:
[1] = tested on: Balb/c mice; assay: LPS-induced neutrophil accumulation in mice; format: in vivo, mouse
Experimental: […] At T=0, mice were placed into an exposure chamber and exposed to LPS (7.0 mL, 0.5 mg/mL solution in PBS) for 30 min). After a further 8 hr the animals were anesthetized, their tracheas cannulated and BALF extracted by infusing and then withdrawing from their lungs 1.0 mL of PBS via the tracheal catheter. Total and differential white cell counts in the BALF samples were measured using a Neubaur haemocytometer. Cytospin smears of the BALF samples were prepared by centrifugation at 200 rpm for 5 min at RT and stained using a DiffQuik stain system (Dade Behring). Cells were counted using oil immersion microscopy. Data for neutrophil numbers in BAL are shown as mean ±S.E.M. (standard error of the mean). The percentage inhibition of neutrophil accumulation was calculated for each treatment relative to vehicle treatment,

[2] = tested on: A/J mice; assay: Cigarette smoke model: macrophage and neutrophil accumulation in BALF; format: in vivo, mouse; conditions: for % inhibition Macrophage in BALF / % inhibition Neutrophil in BALF: tobacco smoke
Experimental: A/J mice (males, 5 weeks old) were exposed to cigarette smoke (4% cigarette smoke, diluted with air) for 30 min/day for 11 days using a Tobacco Smoke Inhalation Experiment System for small animals (Model SIS-CS; Sibata Scientific Technology, Tokyo, Japan). […] At 12 hr after the last dosing, each of the animals was anesthetized, the trachea cannulated and bronchoalveolar lavage fluid (BALF) was collected. The numbers of alveolar macrophages and neutrophils were determined by FACS analysis (EPICS® ALTRA II, Beckman Coulter, Inc., Fullerton, Calif., USA) using anti-mouse MOMA2 antibody (macrophage) or anti-mouse 7/4 antibody (neutrophil). BALF was centrifuged and the supernatant was collected. The level of keratinocyte chemoattractant (KC; CXCL1) in BALF was quantitated using a Quentikine® mouse KC ELISA kit (R&D systems, Inc., Minneapolis, Minn., USA).

[3] = tested on: ICAM-1; assay: Rhinovirus-induced ICAM-1 expression in BEAS2B cells; format: cell-based; conditions: Homo sapiens, BEAS-2B, read-out: IC50 Values for HRV Stimulated Release/Expression ICAM1 (BEAS2B)
Experimental: Human rhinovirus RV16 was obtained from the American Type Culture Collection (Manassas, Va.). Viral stocks were generated by infecting Hela cells with HRV until 80% of the cells were cytopathic.
BEAS2B cells were infected with HRV at an MOI of 5 and incubated for 2 hr at 33° C. with gentle shaking for to promote absorption. The cells were then washed with PBS, fresh media added and the cells were incubated for a further 72 hr. The supernatant was collected for assay of IL-8 concentrations using a Duoset ELISA development kit (R&D systems, Minneapolis, Minn.).
The level of cell surface ICAM-1 expression was determined by cell-based ELISA. At 72 hr after infection, cells were fixed with 4% formaldehyde in PBS. After quenching endogenous peroxidase by adding 0.1% sodium azide and 1% hydrogen peroxide, wells were washed with wash-buffer (0.05% Tween in PBS: PBS-Tween). […] The ICAM-1 signal was detected by adding substrate and reading at 450 nm with a reference wavelength of 655 nm using a spectrophotometer. The wells were then washed with PBS-Tween and total cell numbers in each well were determined by reading absorbance at 595 nm after Crystal Violet staining and elution by 1% SDS solution. The measured OD450-655 readings were corrected for cell number by dividing with the OD595 reading in each well. […]

[4] = tested on: ICAM-1; assay: Poly I:C-induced ICAM-1 expression in BEAS2B cells; format: cell-based; conditions: Homo sapiens, BEAS-2B, read-out: PolyIC/ICAM1 IC50 (BEAS2B)
Experimental: Poly I:C was used in these studies as a simple, RNA virus mimic. Poly I:C-Oligofectamine mixture (1 μg/mL Poly I:C, ±2% Oligofectamine, 25 μL; Invivogen Ltd., San Diego, Calif., and Invitrogen, Carlsbad, Calif., respectively) was transfected into BEAS2B cells (human bronchial epithelial cells, ATCC). Cells were pre-incubated with final concentrations of test compounds for 2 hr and the level of ICAM-1 expression on the cell surface was determined by cell-based ELISA. At a time point 18 hr after poly I:C transfection, cells were fixed with 4% formaldehyde in PBS (100 μL) and then endogenous peroxidase was quenched by the addition of washing buffer (100 μL, 0.05% Tween in PBS: PBS-Tween) containing 0.1% sodium azide and 1% hydrogen peroxide. Cells were washed with wash-buffer (3×200 μL). and after blocking the wells with 5% milk in PBS-Tween (100 μL) for 1 hr, the cells were incubated with anti-human ICAM-1 antibody (50 μL; Cell Signaling Technology, Danvers, Mass.) in 1% BSA PBS overnight at 4° C.
The cells were washed with PBS-Tween (3×200 μL) and incubated with the secondary antibody (100 μL; HRP-conjugated anti-rabbit IgG, Dako Ltd., Glostrup, Denmark). The cells were then incubated with of substrate (50 μL) for 2-20 min, followed by the addition of stop solution (50 μL, 1N H2SO4). The ICAM-1 signal was detected by reading […] the absorbance at 450 nm against a reference wavelength of 655 nm using a spectrophotometer. The cells were then washed with PBS-Tween (3×200 μL) and total cell numbers in each well were determined by reading absorbance at 595 nm after Crystal Violet staining (50 μL of a 2% solution in PBS) and elution by 1% SDS solution (100 μL) in distilled water. The measured OD 450-655 readings were corrected for cell number by dividing with the OD595 reading in each well. The inhibition of ICAM-1 expression was calculated at each concentration of test compound by comparison with vehicle control.

[5] = tested on: IL-8; assay: LPS-induced IL-8 release in d-U937 cells; format: cell-based; conditions: Homo sapiens, dU937, dU937 cells
In short: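 U937 cells differentiated with PMA (100 ng/mL, 48–72 hr) were pre-incubated with compound for 2 hr, then stimulated with E. coli O111:B4 LPS (0.1 μg/mL) for 4 hr. Supernatant cytokine measured by sandwich ELISA; inhibition vs vehicle control at each concentration, REC50 taken from the concentration-response curve.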

| Structure (SMILES) | % inhibition of neutrophil numbers in BALF ([1]; 0.05 mg/mL intra tracheal, pre-dose 2 hr) [%] | % inhibition of neutrophil numbers in BALF ([1]; 0.2 mg/mL intra tracheal, pre-dose 2 hr) [%] | % inhibition of neutrophil numbers in BALF ([1]; 1.0 mg/mL intra tracheal, pre-dose 2 hr) [%] | % inhibition of neutrophil numbers in BALF ([1]; 1.0 mg/mL intra tracheal, pre-dose 8 hr) [%] | % inhibition of neutrophil numbers in BALF ([1]; 1.0 mg/mL intra tracheal, pre-dose 12 hr) [%] | LPS-induced neutrophil accumulation, effect in words ([1]; mice) | macrophage accumulation in BALF induced by cigarette smoke, effect in words ([2]; mice) | neutrophil accumulation in BALF induced by cigarette smoke, effect in words ([2]; mice) | % inhibition Macrophage in BALF ([2]; 0.32 μg/mL intra-nasal) [%] | % inhibition Neutrophil in BALF ([2]; 0.32 μg/mL intra-nasal) [%] | % inhibition Macrophage in BALF ([2]; 1.6 μg/mL intra-nasal) [%] | % inhibition Neutrophil in BALF ([2]; 1.6 μg/mL intra-nasal) [%] | % inhibition Macrophage in BALF ([2]; 8.0 μg/mL intra-nasal) [%] | % inhibition Neutrophil in BALF ([2]; 8.0 μg/mL intra-nasal) [%] | % inhibition Macrophage in BALF ([2]; 40 μg/mL intra-nasal) [%] | % inhibition Neutrophil in BALF ([2]; 40 μg/mL intra-nasal) [%] | IC50 [3] [nM] | IC50 [4] [nM] | IC50 [5] [nM] |
| --- | --- | --- | --- | --- | --- | --- | --- | --- | --- | --- | --- | --- | --- | --- | --- | --- | --- | --- | --- |
| Cc1ccc(-n2nc(C(C)(C)C)cc2NC(=O)Nc2ccc(Oc3ccnc(Nc4ccccc4)n3)c3ccccc23)cc1 [Example 1, 1-(3-(tert-Butyl)-1-(p-tolyl)-1H-pyrazol-5-yl)-3-(4-(2-(phenylamino)pyrimidin-4-yloxy)naphthalen-1-yl)urea] | 18 | 48 | 77 | 48 | 4 | dose dependent inhibition | dose-dependent inhibition | dose-dependent inhibition | 11 | 12 | 28 | 29 | 43 | 41 | 64 | 52 | 0.023 | – | – |
| Cc1ccc(-n2nc(C(C)(C)C)cc2NC(=O)Nc2ccc(Oc3ccnc(Nc4cccc(O)c4)n3)c3ccccc23)cc1 [Example 2, 1-(3-(tert-Butyl)-1-(p-tolyl)-1H-pyrazol-5-yl)-3-(4-((2-((3-hydroxyphenyl)amino)pyrimidin-4-yl)oxy)naphthalen-1-yl)urea] | – | – | – | – | – | – | – | – | – | – | – | – | – | – | – | – | – | 4.3 | 2.7 |
